Assay results published in article PMC5638581 (Molecular Biology of the Cell, 2017).

What was measured:
[1] = target: TorsinA (TorA) with LAP1 luminal domain (LAP1^LD) (Homo sapiens, UniProt O14656); settings: 3 μM TorA, 3 μM LAP1 LD, 2 mM ATP, 37 °C, 1 h
[2] = target: TorsinA (TorA) with LULL1 luminal domain (LULL1^LD) (Homo sapiens, UniProt O14656); settings: 3 μM TorA, 3 μM LULL1 LD, 2 mM ATP, 37 °C, 1 h
[3] = target: the molecule itself; test: SEC + other: negative stain electron microscopy

Chain of TorsinA (TorA) with LAP1 luminal domain (LAP1^LD) (Q5JTV8 356-583 partner, one chain of several): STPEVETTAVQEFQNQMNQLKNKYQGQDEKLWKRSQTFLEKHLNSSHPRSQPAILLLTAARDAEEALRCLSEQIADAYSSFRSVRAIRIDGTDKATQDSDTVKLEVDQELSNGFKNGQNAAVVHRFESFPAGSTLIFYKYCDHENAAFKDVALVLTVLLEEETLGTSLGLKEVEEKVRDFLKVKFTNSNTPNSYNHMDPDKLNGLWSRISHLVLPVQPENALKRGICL
Chain of TorsinA (TorA) with LULL1 luminal domain (LULL1^LD) (Q8NFQ8 236-470 partner, one chain of several): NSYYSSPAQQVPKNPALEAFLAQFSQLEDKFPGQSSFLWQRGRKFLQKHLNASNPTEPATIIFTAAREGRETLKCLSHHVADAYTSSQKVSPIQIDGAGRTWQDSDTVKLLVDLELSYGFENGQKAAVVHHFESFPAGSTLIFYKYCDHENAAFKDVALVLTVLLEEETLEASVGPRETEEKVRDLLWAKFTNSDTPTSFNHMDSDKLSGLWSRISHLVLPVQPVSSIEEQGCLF

Nc1ncnc2c1ncn2[C@@H]1O[C@H](COP(=O)(O)OP(=O)(O)OP(=O)(O)O)[C@@H](O)[C@H]1O [ATP]
malachite green phosphate release (ATPase) [1]: ATPase activity was measured in the absence and presence of LAP1^LD and LULL1^LD | malachite green phosphate release (ATPase) [2]: ATPase activity was measured in the absence and presence of LAP1^LD and LULL1^LD

B1: TorsinA wild type, C-terminally FLAG-tagged, full length (enzyme, human, UniProt O14656 21-332, looked up)
chain: VEPISLGLALAGVLTGYIYPRLYCLFAECCGQKRSLSREALQKDLDDNLFGQHLAKKIILNAVFGFINNPKPKKPLTLSLHGWTGTGKNFVSKIIAENIYEGGLNSDYVHLFVATLHFPHASNITLYKDQLQLWIRGNVSACARSIFIFDEMDKMHAGLIDAIKPFLDYYDLVDGVSYQKAMFIFLSNAGAERITDVALDFWRSGKQREDIKLKDIEHALSVSVFNNKNSGFWHSSLIDRNLIDYFVPFLPLEYKHLKMCIRVEMQSRGYEIDEDIVSRVAEEMTFFPKEERVFSDKGCKTVFTKLDYYYDD
stoichiometry N [3]: ~6
